Patent US6541483B2, “Acridone-derived compounds useful as antineoplastic and antiretroviral agents” (The United States of America as represented by the …, priority 1996, dated 2003)
Like-named read-outs stand apart in the source and are kept apart here.

Columns and labels:
[1] = test system: HIV-1 mRNA; experiment: RT-PCR of HIV-1 mRNA expression and splicing after TNFα induction; assay type: cell-based
Protocol: Similar results were seen when temacrazine and TNFα were added simultaneously.
As a control the house keeping gene porphobilinogen deaminase (Hydroxymethylbilane synthase, “PBGD”) was amplified to determine uniformity of loading.

[2] = test system: U1 cells; experiment: viability of U1 cells; assay type: cell-based; settings: 48 h
Protocol: As a model of the late phase events during the HIV-1 replication cycle, U1 cells were used that are latently infected with two copies of HIV-1 proviral DNA. The high level expression of virus production in these U1 cells can be stimulated by certain factors, such as TNF-α. U1 cells were stimulated with TNF-α for 24 hours, after which were added various concentrations of temacrazine, and the cultures were allowed to incubate for 48 additional hours. At that time, the cells were evaluated for viability and for their content of viral protein synthesis and processing, while the cell-free supernatant was evaluated for viral p24 content and for the infectious titer of released virions. […] Cell viability was diminished above 30 nM with these U1 cells.

[3] = test system: CEM-SS cells; experiment: XTT assay toxicity in CEM-SS cells (IC50); assay type: cell-based; settings: for IC50: Homo sapiens, CEM-SS cells
Description: (§1) Briefly, the infected cells in culture are killed by the virus, and the cytotoxicity is detected by the formation of color due to the […] of a formazan dye (XTT) by enzymes released by the dying cells (Weislow et al., J. Natl. Cancer Inst. 81:577-586, 1989). An effective antiviral drug is able to protect the infected cells from cytotoxicity by inhibiting some vital function of the virus. […] FIGS. 4 and 5 show the cytoprotective activity of WMC26 and WMC42. Since many drugs can also be toxic to cells in their own right, a parallel experiment is carried out wherein uninfected cells are treated with the drugs until a concentration is reached where the cells are killed by the action of the drug.
(§2) As a result of these preliminary data, additional experiments were carried out to establish the antiviral activity in other cell lines, using a variety of protocols. The preliminary experiments in lymphocytes were confirmed using infected macrophages. Much more extensive experiments were carried out in HIV-1-infected CEM SS leukemia cells. […] However, two derivatives were found which had low antileukemic activity while maintaining high antiviral activity. […] This gives a therapeutic index of more than 3 orders of magnitude. The corresponding therapeutic index for WMC50 is about 100-200, which is quite acceptable. Additional experiments were carried out on WMC-70. […] Further, WMC-70 appears to affect post-transcription events in the virus. […] While the inhibition of integration appears to be the principal mechanism by which this compound exerts its antiviral activity, there are perhaps other mechanisms which are also involved in the therapeutic action of this drug, and by extension, of other antiviral drugs of this class.
(§3) The antiviral properties of the WMC series of compounds were evaluated. First, all compounds were tested for their ability to inhibit HIV-1 replication in cell culture using the XTT cytoprotection assay. This assay measures the concentration-dependent capacity of compounds to protect CEM-SS cells from the cytopathic effects of HIV-1. […] Thus, temacrazine was the most efficacious compound in the XTT cytoprotection assay. This conclusion was also reached when the compounds were tested for anti-HIV-1 activity against HIV-1ADA in human monocyte/macrophage cultures (Table 1).

[4] = test system: HIV-1 proviral DNA formation (LTR/gag); experiment: time course assay of proviral DNA formation; assay type: cell-based; settings: amplified LTR/gag region
[5] = test system: HIV-1ADA; experiment: anti-HIV-1 activity in monocyte/macrophage cultures; assay type: cell-based; settings: Human immunodeficiency virus 1; HIV-1ADA, human monocyte/macrophage cultures; read-out: Mo/Mφ EC50
Protocol: as §3

[6] = molecular target: p7 nucleocapsid protein zinc fingers (Human immunodeficiency virus type 1 group M subtype B, UniProt P04591); experiment: p7NC zinc finger fluorescence assays (TSQ, Trp37); assay type: biochemical, HIV-1
Description: (§4) Based on the findings thus far our efforts have focused on biological assays of the temacrazine congener.

[7] = test system: HIV-1; experiment: XTT cytoprotection assay in CEM-SS cells (antiviral EC50); assay type: cell-based
Description: as §1, §2, §3

[8] = test system: HIV-1 in U1 cells; experiment: TNF-α stimulated latently infected U1 cells, virus production; assay type: cell-based
Protocol: As a model of the late phase events during the HIV-1 replication cycle, U1 cells were used that are latently infected with two copies of HIV-1 proviral DNA. The high level expression of virus production in these U1 cells can be stimulated by certain factors, such as TNF-α. U1 cells were stimulated with TNF-α for 24 hours, after which were added various concentrations of temacrazine, and the cultures were allowed to incubate for 48 additional hours. At that time, the cells were evaluated for viability and for their content of viral protein synthesis and processing, while the cell-free supernatant was evaluated for viral p24 content and for the infectious titer of released virions.
After TNFα induction and temacrazine treatment, cultures were continued for 72 h after which virion-associated p24 and cell viability (XTT dye reduction) were measured.

[9] = test system: attachment of HIV-1RF to CEM-SS cells; experiment: attachment of virions to CEM-SS cells (cell-bound p24 ELISA); assay type: cell-based; settings: Human immunodeficiency virus 1, CEM-SS
Description: as §4

[10] = test system: HIV-1 specific mRNA; experiment: Northern blotting of total HIV-1 mRNA in U-1 cells; assay type: cell-based; settings: TNFα stimulated U-1 cells
Description: To assess the possibility that temacrazine was regulating HIV-1 mRNA expression, the expression of total HIV-1 mRNA by Northern blotting was examined (FIG. 16).

[11] = molecular target: HIV-1 protease (Human immunodeficiency virus type 1 group M subtype B, UniProt P04585); experiment: Pr55gag processing assay with recombinant protease; assay type: biochemical; settings: enzyme pretreated one hour at 37° C.
Protocol: However, to insure that the HPLC-based assay (used in Table 1) was providing accurate findings, the action of temacrazine in the Gag processing assay was evaluated. In this assay, purified recombinant HIV-1 protease enzyme was pretreated with the test reagent for one hour at 37° C., and then exposed the recombinant Pr55^gag precursor polyprotein to the treated enzyme.

## O=c1c2ccccc2n2nnc3ccc(NCCCN4CCN(CCCNc5ccc6nnn7c8ccccc8c(=O)c5c67)CC4)c1c32 [temacrazine]
[1]
  PBGD (house keeping gene) expression: did not decrease
[1]; 500 and 50 nM, prior to or 24 h after TNFα induction
  expression of unspliced or singly spliced mRNA: completely inhibited
[1]; RT-PCR, rev independent mRNAs
  expression of HIV-1 multispliced transcripts: did not alter
[2]
  concentration above which cell viability was diminished: above 30 nM
[3]; CEM SS cells
  concentration at which the drug kills 50% of the cells: greater than micromolar concentrations
[3]; Table 1, read-out: XTT Assay IC50
  IC50: 2770 nM
[3]; read-out: IC50 toxicity value, XTT assay
  IC50: 2770 nM
[4]
  formation of proviral DNA during reverse transcription: did not prevent the formation of proviral DNA
[5]
  EC50: 10 nM
[6]
  damage of the gag protein zinc finger: did not damage
[7]; CEM SS cells
  therapeutic index: more than 3 orders of magnitude
[7]; HIV-1-infected CEM SS leukemia cells
  cytoprotective activity: cytoprotective at very low concentrations
[7]; Human immunodeficiency virus 1, CEM-SS, read-out: EC50 (inhibits the cytotoxic effect of the virus to 50%)
  EC50: < 1 nM
[7]; Human immunodeficiency virus 1, CEM-SS, read-out: XTT Assay EC50
  EC50: 1.1 nM
[7]; Human immunodeficiency virus 1, CEM-SS cells, read-out: EC50 antiviral value, XTT cytoprotection assay
  EC50: 1.1 nM
[8]; 30 min. pulse of cultures
  production of infectious virus following stimulation with TNFα: presented subsequent production of infectious virus
[8]; Human immunodeficiency virus 1, U1 cells, 72 h, read-out: EC50, inhibition of HIV-1 virus replication (virion-associated p24)
  EC50: 10 to 100 nM
[8]; TNF-α 24 h, then drug 48 h
  infectivity of released viral particles (IU/ml): non-infectious
[8]; TNF-α 24 h, then drug 48 h, cell-free supernatant
  concentration at which virus production (p24) was inhibited: below 4 nM
[8]; cells with integrated virus (U1), Western blotting, listed as WMC-70
  processing of Gag precursor polyprotein (Pr55gag) to p24 and p7NC: no p24 can be detected
[9]; Table 1, read-out: Attachment ID50
  IC50: > 100000 nM
[9]; Table 1A, read-out: I50 Attachment
  IC50: > 100000 nM
[10]; 1 nM
  HIV-1 specific mRNA production: decrease in single spliced and unspliced mRNA with no apparent decrease in the multi-spliced mRNA
[10]; 10 and 100 nM
  HIV-1 specific mRNA production: suppressed mRNA production globally
[11]
  inhibition of protease in Gag processing assay: had no inhibitory effect
